Laboratory results taken from patent US7897610B2, “Use of benzo[c]quinolizinium derivatives for the treatment of diseases that are linked to smooth muscle cell constriction” (Centre National de la Recherche Scientifique, priority 2002, dated 2011).
Values joined by “and” are separate entries in the source; they are usually repeats but may differ in a detail not shown here. Equal entries are not always repeated. “Also recorded” adds a separate entry of the source. Where two headings read alike, the source gives them in different places.

Assays:
[1] = system: aorta rings of Cftr+/+ mice; assay: Vasorelaxation of aorta rings contracted by 80 mM K+, Cftr+/+ mice; assay type: cell-based, mouse; details: for effect on pre-contracted aorta: Cftr+/+ rat and mouse tissues
Text: (§1) CFTR is detected at the level of its messenger RNA and at the level of protein in the smooth muscles. As negative control the inventors used musculus skeleti of rat at the level of which neither the messenger nor the protein are present. CFTR is detectable in the smooth muscle by immunoprecipitation and phosphorylation in vitro by the protein kinase A. The pharmacology of CFTR has been studied using iodide efflux in muscle cell freshly dissociated from rat aorta. […] Its inhibition profile is similar to that of epithelial CFTR (sensitivity to glibenclamide and DPC but not to Calixarene). […] Moreover, a greater contraction is observed in the KO animals in response to the constricting agents.
(§2) a, graphs showing the vasorelaxation induced by the VIP neuropeptide (Vasoactive Intestinal Polypeptide) of aortas without endothelium of Cftr^+/+ (left) and Cftr^−/− (right) mice. The aorta rings are reversibly contracted by a hyperpotassium solution (solution of 80 mM K^+) then the effect of 300 nM VIP is measured. The absence of endothelium is verified by the addition of acetylcholine (ACh, 10^−5 M).
(§3) This effect is absent in Cftr^−/− mice (n=6). Average±SEM*P<0.05, ** P<0.01, *** P<0.001.

[2] = system: aorta rings of Cftr-/- mice; assay: Vasorelaxation of aorta rings contracted by 80 mM K+, Cftr-/- mice; assay type: cell-based, mouse; details: pre-contracted aorta
Text: as §1, §2, §3

CFTR [3] = molecular target: T1, CFTR (Rattus norvegicus, UniProt P34158); assay: Iodide efflux in muscle cell freshly dissociated from rat aorta; assay type: cell-based
T1 construct: CFTR is detected at the level of its messenger RNA and at the level of protein in the smooth muscles; from tissue; host or cells: smooth muscle cells freshly dissociated from rat aorta
T1 sequence (P34158 whole entry): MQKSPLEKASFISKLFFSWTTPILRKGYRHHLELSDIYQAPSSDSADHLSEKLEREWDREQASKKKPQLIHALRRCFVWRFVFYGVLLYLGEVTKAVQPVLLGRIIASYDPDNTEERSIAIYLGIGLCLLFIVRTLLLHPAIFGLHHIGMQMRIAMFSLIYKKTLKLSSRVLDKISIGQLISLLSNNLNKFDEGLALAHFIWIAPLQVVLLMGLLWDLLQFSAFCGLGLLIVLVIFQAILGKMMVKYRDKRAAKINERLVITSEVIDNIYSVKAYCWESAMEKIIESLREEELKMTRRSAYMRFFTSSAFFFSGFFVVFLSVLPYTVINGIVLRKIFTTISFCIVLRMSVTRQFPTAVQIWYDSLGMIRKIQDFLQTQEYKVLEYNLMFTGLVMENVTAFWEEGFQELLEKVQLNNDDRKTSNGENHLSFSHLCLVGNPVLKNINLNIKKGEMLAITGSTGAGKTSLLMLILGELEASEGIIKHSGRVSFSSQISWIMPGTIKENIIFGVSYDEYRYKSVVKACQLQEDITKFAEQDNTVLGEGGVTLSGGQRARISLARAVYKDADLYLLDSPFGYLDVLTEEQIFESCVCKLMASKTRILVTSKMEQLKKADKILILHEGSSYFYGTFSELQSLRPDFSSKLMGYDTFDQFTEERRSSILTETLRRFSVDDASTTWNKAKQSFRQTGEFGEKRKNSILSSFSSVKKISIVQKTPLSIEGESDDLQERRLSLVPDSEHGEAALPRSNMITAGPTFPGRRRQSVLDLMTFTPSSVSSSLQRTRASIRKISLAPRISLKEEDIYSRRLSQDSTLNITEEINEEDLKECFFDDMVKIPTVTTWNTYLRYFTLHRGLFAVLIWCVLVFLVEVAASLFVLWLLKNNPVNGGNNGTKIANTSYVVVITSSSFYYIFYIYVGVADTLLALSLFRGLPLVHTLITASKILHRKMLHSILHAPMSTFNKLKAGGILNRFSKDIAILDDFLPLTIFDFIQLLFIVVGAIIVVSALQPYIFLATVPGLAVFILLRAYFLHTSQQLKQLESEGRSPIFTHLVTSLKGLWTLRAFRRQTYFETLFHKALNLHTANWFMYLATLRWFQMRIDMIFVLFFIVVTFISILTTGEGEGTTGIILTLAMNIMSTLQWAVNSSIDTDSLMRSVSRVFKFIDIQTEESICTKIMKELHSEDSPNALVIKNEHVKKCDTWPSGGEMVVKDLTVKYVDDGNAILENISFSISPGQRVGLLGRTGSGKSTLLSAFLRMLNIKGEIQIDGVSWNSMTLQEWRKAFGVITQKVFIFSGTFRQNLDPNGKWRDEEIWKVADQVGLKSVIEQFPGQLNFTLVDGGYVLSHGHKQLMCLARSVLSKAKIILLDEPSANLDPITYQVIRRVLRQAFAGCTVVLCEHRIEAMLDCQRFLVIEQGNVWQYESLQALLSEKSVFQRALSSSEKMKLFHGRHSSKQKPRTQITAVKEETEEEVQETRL
Text: as §1

[4] = system: aorta rings isolated from rats; assay: Isolated organ technique: relaxation of rat aorta rings pre-contracted in hyperpotassium solution (80 mM KCl); assay type: cell-based; details: for EC50: Rattus norvegicus
Experimental: The experiments are carried out on the thoracic aorta of male rats of Wistar strain weighing 200 to 250 g, 7 to 8 weeks of age. The rat is stunned then placed in the supine position. After thoracotomy, the segment of the aorta comprised between the diaphragm and the right aortic arch is excised. The portion of aorta is immediately placed in a buffered physiological solution of modified Krebs type. The aorta is sectioned into 5 mm rings.
For certain preparations, the endothelium is removed mechanically using a needle surrounded by a wire which is turned in the aorta ring.
The aorta rings, after dissection, are suspended between two hooks one of which is fixed and the other is mobile. This mounting is placed in a chamber of Plexiglas (Emka Technologies), thermostatically-controlled at 37° C., containing 5 ml of physiological solution oxygenated by a gas mixture (95% O2-5% CO2). The thermostatically-controlled enclosure is supplied by a water bath. The mobile hook is suspended with a sensor connected to the interface (electromechanical transducer). This interface is connected on the one hand to an amplifier (amplification of the signal) and on the other hand to a computer (display and analysis of the signal). The IOX 1.565 program enables the processing and display of the signals on the computer screen. The Data Analyst and Prism 3.0 programs allow analysis of the results.
After mounting the aorta rings in the experimental device, these are stretched at a basal tension of 2.5 g. This tension corresponds to the optimum point of their tension/length relationship. Waiting for a stable state in the reference physiological medium is carried out over a period of approximately 1 hour with washing every 20 minutes. Following this equilibration period, the different experiments are carried out.
In order to be free of the relaxation/contraction mechanisms due to the endothelium, certain preparations are made devoid of the latter by mechanical destruction. In order to ensure effective destruction of the endothelium, a cholinergic test (ACh 10^−4 M) is carried out at the end of the first period of equilibration, on preparations pre-contracted by a hyperpotassium solution (80 mM of KCl).
Following this test, the preparations are subjected to several successive washings in order to re-establish a stable state. Once a stable state is reached, the different experiments can be carried out. The contractures due to the hyperpotassium solutions are obtained by the total replacement of the reference physiological solution by the hyperpotassium solution. The administration of the pharmacological substances is carried out in a cumulative fashion and directly in the isolated organ chambers whilst paying attention that the additional volume is not too high. The application of each new concentration only occurs after stabilization. In order to be aware of the reactivity state of the preparation at the end of manipulation, a hyperpotassium or noradrenergic test is carried out. If the preparation reacts in the direction of a contracture, the test is valid.
The composition of the reference physiological solution is a solution of modified Krebs type: NaCl: 120 mM; KCl: 4.7 mM; CaCl2: 2.5 mM; MgCl2: 1.2 mM; NaH2PO4: 1.2 mM; NaHCO3: 15 mM; Hepes: 10 mM; Glucose: 11 mM; pH=7.4. Hyperpotassium solutions containing different concentrations of KCl have been prepared according to the same principle. These solutions are used to provoke a contracture of the aorta ring by depolarisation of the smooth muscle cells. The hyperpotassium solution mainly used in the experiments contains 80 mM of KCl.

[5] = system: aorta rings with endothelium pre-contracted by arterenol; assay: Isolated organ technique: relaxation of rat aorta rings pre-contracted by arterenol; assay type: cell-based
Experimental: The experiments are carried out on the thoracic aorta of male rats of Wistar strain weighing 200 to 250 g, 7 to 8 weeks of age. The rat is stunned then placed in the supine position. After thoracotomy, the segment of the aorta comprised between the diaphragm and the right aortic arch is excised. The portion of aorta is immediately placed in a buffered physiological solution of modified Krebs type. The aorta is sectioned into 5 mm rings. The aorta rings, after dissection, are suspended between two hooks one of which is fixed and the other is mobile. […] The thermostatically-controlled enclosure is supplied by a water bath. The mobile hook is suspended with a sensor connected to the interface (electromechanical transducer). This interface is connected on the one hand to an amplifier (amplification of the signal) and on the other hand to a computer (display and analysis of the signal). […] The Data Analyst and Prism 3.0 programs allow analysis of the results. After mounting the aorta rings in the experimental device, these are stretched at a basal tension of 2.5 g. This tension corresponds to the optimum point of their tension/length relationship. Waiting for a stable state in the reference physiological medium is carried out over a period of approximately 1 hour with washing every 20 minutes. Following this equilibration period, the different experiments are carried out. […]

[6] = system: anionic transport in smooth muscle cells of aorta rings; assay: Iodide efflux (125I) on rat aorta rings; assay type: cell-based; set-up: key to iodide discharge speed / iodide discharge speed after stimulation: Ln(125I t1/125I t2)/(t1−t2), per min; key to increase of discharge speed over basal state: difference of Ln(125I t1/125I t2)/(t1−t2) values, per min; details: for iodide discharge speed / increase of discharge speed over basal state: hyperpotassium medium; for activation of anionic transport / discharge speed: smooth muscle cells of aorta rings
Experimental: The iodide efflux technique, perfected by Venglarick et al. (1990), allows measurement of the movement of ions and is described in detail in Derand et al. (2001).
The aorta rings of equivalent size, are incubated in 1 ml of filling solution composed of physiological solution of modified Krebs type or hyperpotassium solution (80 mM KCl) supplemented with 1.5 μl/ml of Na ^125I and 0.1 μl/ml of KI. After incubation for 1 hour 30 minutes at 37° C., 4 successive rinsings of two minutes are carried out in 1 ml of appropriate physiological solution (normal Krebs or hyperpotassium solution). An iodide efflux kinetics of the aorta rings is carried out for 12 min. After each minute, the content of each well is sampled and placed in hemolysis tubes, and radioactivity is counted with a gamma counter (Packard, Cobra II). At the 12th minute, the aorta rings are solubilized in Sodium Dodecyl Sulphate (SDS 0.1%)+NaOH (0.1 M). This stage allows the recovery of the residual radioactivity by cell destruction.
The total radioactivity of the cells is calculated by the addition of the counts per minute (cpm) of each collected fraction and of the cpm of the solubilized fraction (residual radioactivity). The curves are plotted expressing the efflux as a percentage of the cell content accumulated in the medium as a function of time. For example, the value attributed at time tn, corresponds to: 100×(Σ cpm obtained from t0 to tn)/total radioactivity. The instantaneous discharge speed is presented according to the formula Ln(^125It1/^125It2)/(t1−t2), where t1 and t2 are two successive times and ^125It1 and ^125It2 are the effluxes measured at time t1 and t2. In order to evaluate the effect of a substance, the activation ratio r=discharge speed after stimulation/discharge speed before stimulation is determined. The results (average±SEM) are compared using Student's statistical test for a paired value.

human mammary arteries = assay: Vasorelaxant effect on human mammary arteries; assay type: cell-based
Text: The pharmacological effects of the compounds of the benzo[c]quinolizinium family, CFTR activators: 6-hydroxy-10-chlorobenzo[c]quinolizinium chloride (reference name: MPB-07) and 5-butyl-6-hydroxy-10-chlorobenzo[c]quinolizinium chloride (reference name: MPB-91), were studied on aorta rings isolated from rats and from human mammary arteries.

CFTR [7] = molecular target: T2, CFTR (Homo sapiens, UniProt P13569); details: epithelial cells; cited from earlier work
T2 construct: In cells expressing the CFTR protein in an endogenous manner
T2 sequence (P13569 whole entry): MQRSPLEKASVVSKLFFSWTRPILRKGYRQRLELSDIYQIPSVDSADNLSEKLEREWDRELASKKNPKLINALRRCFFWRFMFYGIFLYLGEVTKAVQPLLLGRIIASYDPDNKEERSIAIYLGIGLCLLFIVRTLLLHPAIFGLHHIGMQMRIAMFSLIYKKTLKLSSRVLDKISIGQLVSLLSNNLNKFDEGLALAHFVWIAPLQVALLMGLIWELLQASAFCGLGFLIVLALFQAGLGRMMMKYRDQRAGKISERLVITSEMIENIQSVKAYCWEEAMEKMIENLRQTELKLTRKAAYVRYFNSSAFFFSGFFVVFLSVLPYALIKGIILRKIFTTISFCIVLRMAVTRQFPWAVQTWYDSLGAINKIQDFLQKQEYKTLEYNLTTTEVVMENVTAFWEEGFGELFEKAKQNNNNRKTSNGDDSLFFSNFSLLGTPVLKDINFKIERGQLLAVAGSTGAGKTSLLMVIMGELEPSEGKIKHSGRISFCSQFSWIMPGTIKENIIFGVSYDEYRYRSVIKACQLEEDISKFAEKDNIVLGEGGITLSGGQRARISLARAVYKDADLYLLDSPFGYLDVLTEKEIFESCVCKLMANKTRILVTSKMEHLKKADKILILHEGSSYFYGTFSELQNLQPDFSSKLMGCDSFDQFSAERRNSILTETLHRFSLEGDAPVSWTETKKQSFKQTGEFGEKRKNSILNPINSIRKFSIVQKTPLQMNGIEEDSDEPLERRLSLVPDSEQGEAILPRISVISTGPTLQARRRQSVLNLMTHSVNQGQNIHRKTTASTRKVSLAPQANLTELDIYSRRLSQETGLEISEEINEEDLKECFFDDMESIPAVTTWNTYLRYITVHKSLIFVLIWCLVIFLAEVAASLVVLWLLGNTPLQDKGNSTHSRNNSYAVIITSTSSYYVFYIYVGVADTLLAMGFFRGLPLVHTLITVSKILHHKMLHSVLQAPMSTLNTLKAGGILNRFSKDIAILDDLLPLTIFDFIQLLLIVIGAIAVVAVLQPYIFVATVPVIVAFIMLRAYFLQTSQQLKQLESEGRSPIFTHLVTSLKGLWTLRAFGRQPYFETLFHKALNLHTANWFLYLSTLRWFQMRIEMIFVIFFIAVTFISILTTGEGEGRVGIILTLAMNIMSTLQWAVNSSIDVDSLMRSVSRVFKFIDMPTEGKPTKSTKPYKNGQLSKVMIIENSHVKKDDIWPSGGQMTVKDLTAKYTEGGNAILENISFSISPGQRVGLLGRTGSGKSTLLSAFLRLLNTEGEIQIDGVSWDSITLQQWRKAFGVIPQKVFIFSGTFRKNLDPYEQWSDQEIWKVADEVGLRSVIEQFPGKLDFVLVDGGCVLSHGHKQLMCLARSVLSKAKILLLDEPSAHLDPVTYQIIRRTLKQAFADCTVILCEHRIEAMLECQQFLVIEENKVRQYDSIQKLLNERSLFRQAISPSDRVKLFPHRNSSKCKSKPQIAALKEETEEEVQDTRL

[8] = without endothelium, 250 μM, 1 minute after addition
[9] = without endothelium, 250 μM, 2 minutes after addition
[10] = comparison of FIG. 6, read-out: EC50, dose/response curves
[11] = summary statement of results, read-out: EC50, vasorelaxant effect

Compound: Vasoactive Intestinal Polypeptide [VIP, reference compound]
- effect on pre-contracted aorta [1]: relaxation of the pre-contracted aorta
- vasorelaxation in Cftr-/- mice [2]: very considerably reduced
- activation of iodide efflux (CFTR [3]): activate iodide efflux

Compound: CC(C)Cn1c(=O)n(C)c(=O)c2[nH]cnc21 [IBMX]
- activation of iodide efflux (CFTR [3]): activate iodide efflux

Compound: CC(=O)OCC[N+](C)(C)C [ACh, acetylcholine, reference compound]
- relaxation (cholinergic test) ([4]; rings with endothelium, 10^-4 M): approximately 40%

Compound: COc1ccc(Cl)cc1C(=O)NCCc1ccc(S(=O)(=O)NC(=O)NC2CCCCC2)cc1 [glibenclamide]
- inhibition profile of iodide efflux (CFTR [3]): sensitivity

Compound: COc1ccc(CCN(C)CCCC(C#N)(c2ccc(OC)c(OC)c2)C(C)C)cc1OC (stereo not shown) [verapamil, Verapamil, reference compound]
- effect on rapid contracture oscillations ([5]; 200 μM, added after MPB-07 10 μM): stops these variations

Compound: O=C(O)c1ccccc1Nc1ccccc1 [DPC]
- inhibition profile of iodide efflux (CFTR [3]): sensitivity

Compound: Nc1ncnc2c1nc(Sc1ccc(Cl)cc1)n2[C@@H]1O[C@@H]2COP(=O)(O)O[C@H]2[C@H]1O [cpt-cAMP]
- activation of iodide efflux (CFTR [3]): activate iodide efflux

Compound: Oc1cc2cccc[n+]2c2c(Cl)cccc12.[Cl-] [MPB-07, 6-hydroxy-10-chlorobenzo[c]quinolizinium chloride]
- iodide discharge speed ([6]; L-NAME 10^-4 M, 250 μM, 1 minute after addition): 0.103±0.017
- iodide discharge speed ([6]; L-NAME 10^-4 M, 250 μM, 2 minutes after addition): 0.110±0.015
- iodide discharge speed ([6]; L-NAME 10^-4 M, 250 μM, 3 minutes after addition): 0.119±0.011
- increase of discharge speed over basal state ([6]; L-NAME, 1 minute): 0.044
- increase of discharge speed over basal state ([6]; L-NAME, 2 minutes): 0.051
- increase of discharge speed over basal state ([6]; L-NAME, 3 minutes): 0.060
- activation of anionic transport / discharge speed [6]: activates anionic transport
- iodide discharge speed [6, 8]: 0.076±0.008
- iodide discharge speed [6, 9]: 0.099±0.013
- increase of discharge speed over basal state ([6]; without endothelium, 1 minute): 0.023
- increase of discharge speed over basal state ([6]; without endothelium, 2 minutes): 0.046
- iodide discharge speed after stimulation ([6]; without endothelium, normal physiological medium, 250 μM, n=3): 0.076±0.016
- EC50 ([4]; aorta rings with endothelium, 80 mM KCl, n=14, read-out: EC50, relaxation): 132.4 ± 0.02 µM
- EC50 ([4]; aorta rings without endothelium, 80 mM KCl, n=7, read-out: EC50, relaxation): 92.9 ± 0.02 µM
- EC50 [4, 10]: 133 µM
- EC50 [4, 11]: 134 µM
- EC50 ([4]; with endothelium + L-NAME 10^-4 M, n=8, read-out: EC50, relaxation): 51.8 ± 0.008 µM
- EC50 ([4]; without endothelium + L-NAME, n=7, read-out: EC50, relaxation): 55.1 ± 0.2 µM
- reversibility of the relaxing effect ([4]; single dose 135 μM, with endothelium, after washing): reversible
- relaxation ([4]; with endothelium + L-NAME, 40 μM): 33±6.15%
- relaxation ([4]; with endothelium + L-NAME, 160 μM): 98±1.3%
- relaxation ([4]; with endothelium, 80 μM): 24±1.6%
- relaxation ([4]; with endothelium, 160 μM): 64%
- relaxation ([4]; with endothelium, 250 μM): 88%
- relaxation ([4]; with endothelium, 500 μM): 96±1.75% and 100%
- relaxation ([4]; without endothelium, 80 μM): 37±5.6%
- relaxation ([4]; without endothelium, 250 μM): 99±1%
- effect on pre-contracted aorta [1]: relaxation of the pre-contracted aorta
- IC50 ([1]; Mus musculus, aorta rings contracted by 80 mM K+, n=6): 37 ± 1.17 µM
- relaxation ([5]; 10 μM, arterenol 10^-4 M, after 2 hours 30 minutes): 90±9%
- vasorelaxation in Cftr-/- mice [2]: very considerably reduced; also recorded: absent
- vasorelaxant effect (human mammary arteries): reversible and slow dose-dependent vasorelaxant effect
- activity on the CFTR channel (CFTR [7]): activators of this ion channel

Compound: O=c1cc2ccccn2c2c(Cl)cccc12 [MPB-70, 10-chlorobenzo[c]quinolizine-6-one, reference compound]
- activation of anionic transport / discharge speed [6]: no increase in the discharge speed
- iodide discharge speed [6, 8]: 0.053±0.003
- iodide discharge speed [6, 9]: 0.055±0.005
- relaxation ([4]; with endothelium, 160 μM): 27%
- relaxation ([4]; with endothelium, 250 μM): 42%
- relaxation ([4]; with endothelium, 500 μM): 46%
- activity on the CFTR channel (CFTR [7]): inactive on CFTR of epithelial cells

Compound: CCCCc1c(O)c2cccc(Cl)c2[n+]2ccccc12.[Cl-] [MPB-91, 5-n-Butyl-10-chloro-6-hydroxybenzo[c]quinolizinium chloride]
- EC50 [4, 10]: 21 µM
- EC50 [4, 11]: 21 µM
- melting point: 160 °C
